Measurements as given in patent US7968601B2, “Adamantyl acetamides as 11-β hydroxysteroid dehydrogenase inhibitors” (Janssen Pharmaceutica N.V., priority 2002, dated 2011).
pIC50: −log10 of the molar value.

Experiments:
11b-HSD1 [1] = molecular target: 11b-HSD1 (Homo sapiens, UniProt P28845); assay: Enzymatic assay, 11b-HSD1 reductase activity (conversion of cortisone into cortisol); format: biochemical; settings: pIC50 scored 1-3, read-out: [C1] HSD1-prot Reduct Score
Protocol: The effects of compounds on 11b-HSD1 dependent conversion of cortisone into cortisol (reductase activity) was studied in a reaction mixture containing 30 mM Tris-HCl buffer pH 7.2, 180 μM NADPH, 1 mM EDTA, 2 μM cortisone, 1 μl drug and/or solvent and 11 μg recombinant protein in a final volume of 100 μl.
(§1) All incubations were performed for 45 min at 37 C in a water bath. The reaction was stopped by adding 100 μl acetonitrile containing 20 μg corticosterone as internal standard. After centrifugation, the product formation was analysed in the supernatant by HPLC on a Hypersyl BDS-C18 column using 0.05 mM ammonium acetate/methanol (50/50) as solvent. In all of the aforementioned assays, the drugs to be tested were taken from a stock solution and tested at a final concentration ranging from […] to 3.10^−9M. From the thus obtained dose response curves, the pIC50 value was calculated and scored as follows; Score 1=pIC50 value<5, Score 2=pIC50 value in the range of 5 to 6, Score 3=pIC50 value>6. (in this table NT stands for Not Tested).

11b-HSD2 [2] = molecular target: T1, 11b-HSD2 (Homo sapiens, UniProt P80365); assay: Enzymatic assay, 11b-HSD2 dependent dehydrogenase activity; format: biochemical; settings: 11b-HSD2 dehydrogenase activity, pIC50 scored 1-3, read-out: [C1] HSD2 prot Dehydro Score
T1 sequence (P80365 1-405): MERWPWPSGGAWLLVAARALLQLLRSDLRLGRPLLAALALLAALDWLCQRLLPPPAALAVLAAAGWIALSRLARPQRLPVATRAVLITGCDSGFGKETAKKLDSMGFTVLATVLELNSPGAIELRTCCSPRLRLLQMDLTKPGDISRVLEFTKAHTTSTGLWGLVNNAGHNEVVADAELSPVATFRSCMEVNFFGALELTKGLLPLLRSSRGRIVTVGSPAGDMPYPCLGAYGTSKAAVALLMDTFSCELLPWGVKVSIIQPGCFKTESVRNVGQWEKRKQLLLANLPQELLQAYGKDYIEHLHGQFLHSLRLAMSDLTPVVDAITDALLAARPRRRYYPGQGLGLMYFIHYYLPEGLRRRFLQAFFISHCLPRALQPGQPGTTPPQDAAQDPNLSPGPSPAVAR
Protocol: The effects on the 11b-HSD2 dependent dehydrogenase activity was studied in a reaction mixture containing 0.1M sodium phosphate buffer pH 7.5, 300 μM NAD, 100 nM cortisol (of which 2 nM is 3H-radio labelled), 1 μl drug and/or solvent and 2.5 μg recombinant protein in a final volume of 100 μl.
as §1

11b-HSD1 [3] = molecular target: T2, 11b-HSD1 (Mus musculus, UniProt P50172); assay: Cellular assay, 11b-HSD1 activity in differentiated 3T3-L1 cells; format: cell-based; settings: 4 hour pre-incubation, pIC50 scored 1-3, read-out: [C2] HSD1 cellular 3T3-L1 Score
T2 construct: endogenous in cells; host or cells: 3T3-L1 (ATCC-CL-173), differentiated into adipocytes
Protocol: The effects on 11b-HSD1 activity was measured in differentiated 3T3-L1 cells and rat hepatocytes.
Mouse fibroblast 3T3-L1 cells (ATCC-CL-173) were seeded at a density of 16500 cells/ml in 12 well plates and grown for 7 days in DMEM medium (supplemented with 10% heat inactivated foetal calf serum, 2 mM glutamine and 25 mg gentamycin) at 37 C in a humidified 5% CO2 atmosphere. Medium was refreshed twice a week. Fibroblasts were differentiated into adipocytes at 37 C in a 5% CO2 humidified atmosphere in growth medium containing 2 μg/ml insulin, 55 μg/ml IBMX and 39.2 μg/ml dexamethasone.
Following a 4 hour pre-incubation with test compound, 0.5 μCi ^3H-cortisone or dehydrocorticosterone, was added to the cultures. One hour later, the medium was extracted on Extrelut^3-columns with 15 ml diethyl ether and the extract was analysed by HPLC as described above.
(§2) As for the enzymatic assays, the compounds to be tested were taken from a stock solution and tested at a final concentration ranging from […] to 3.10^−9M. From the thus obtained dose response curves, the pIC50 value was calculated and scored as follows; Score 1=pIC50 value<5, Score 2=pIC50 value in the range of 5 to 6, Score 3=pIC50 value>6. (in this table NT stands for Not Tested).

11b-HSD2 [4] = molecular target: T1, 11b-HSD2; assay: Cellular assay, 11b-HSD2 activity in HepG2 cells; format: cell-based; set-up: endogenous in cells; host or cells: HepG2 (ATCC HB-8065); settings: 4 hour pre-incubation, pIC50 scored 1-3, read-out: [C2] HSD2 cellular HepG2 Score
Protocol: The effects on 11b-HSD2 activity was studied in HepG2 and LCC-PK1-cells HepG2-cells (ATCC HB-8065) were seeded in 12 well plates at a density of 100,000 cells/ml and grown at 37 C in a humidified 5% CO2 atmosphere in MEM-Rega-3 medium supplemented with 10% heat inactivated foetal calf serum, 2 mM L-glutamine and sodium bicarbonate). Medium was refreshed twice a week. Pig kidney cells (LCC-PK1, ATCC CRL-1392) were seeded at a density of 150,000 cells/ml in 12 well plates and grown at 37 C in a humidified 5% CO2 atmosphere in Medium 199 supplemented with Earls modified salt solution, 100 U/ml penicillin, 100 μg/ml streptomycin and 10% foetal calf serum. Medium was refreshed twice a week. Twenty four hours prior to the onset of the experiment, medium was changed by medium containing 10% charcoal stripped foetal calf serum.
Following a 4 hour pre-incubation with test compound, 0.5 μCi ^3H-cortisol or corticosterone, was added to the cultures. One hour later, the medium was extracted on Extrelut^3-columns with 15 ml diethyl ether and the extract was analysed by HPLC as described above.
as §2

11b-HSD1 (Homo sapiens, UniProt P28845), sequence (P28845 whole entry): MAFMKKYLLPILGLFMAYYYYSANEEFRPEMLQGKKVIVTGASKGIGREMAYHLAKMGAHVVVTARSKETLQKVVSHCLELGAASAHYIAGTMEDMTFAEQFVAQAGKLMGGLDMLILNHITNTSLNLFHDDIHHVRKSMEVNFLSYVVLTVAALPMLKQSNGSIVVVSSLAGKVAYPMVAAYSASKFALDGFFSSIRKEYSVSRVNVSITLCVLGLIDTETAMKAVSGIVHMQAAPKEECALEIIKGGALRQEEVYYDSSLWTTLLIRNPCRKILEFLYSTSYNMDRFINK
T2 sequence (P50172 whole entry): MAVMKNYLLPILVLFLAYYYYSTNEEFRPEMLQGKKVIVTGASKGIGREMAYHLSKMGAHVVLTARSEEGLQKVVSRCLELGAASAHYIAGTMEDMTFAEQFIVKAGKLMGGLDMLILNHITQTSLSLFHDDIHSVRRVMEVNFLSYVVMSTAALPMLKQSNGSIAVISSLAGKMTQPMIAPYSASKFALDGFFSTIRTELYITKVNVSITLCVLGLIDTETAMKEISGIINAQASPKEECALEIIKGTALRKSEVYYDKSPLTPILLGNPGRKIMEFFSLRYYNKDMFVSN

pIC50 (11b-HSD1 [1])	pIC50 (11b-HSD2 [2])	pIC50 (11b-HSD1 [3])	pIC50 (11b-HSD2 [4])	Structure (SMILES)
> 6.00	< 5.00	> 6.00	< 5.00	Cc1cccc(C(C)(C)C(=O)NC2C3CC4CC(C3)CC2C4)c1 (centres unmarked) [Compound 89]
> 6.00	< 5.00	> 6.00	< 5.00	O=C(NC1C2CC3CC(C2)CC1C3)C1CCOc2ccccc21 (centres unmarked) [Compound 167]
> 6.00	< 5.00	> 6.00	< 5.00	CCOC(=O)CCc1cccc(C(C)(C)C(=O)NC2C3CC4CC(C3)CC2C4)c1 (centres unmarked) [Compound 193]
> 6.00	< 5.00	> 6.00	< 5.00	O=C(NC1C2CC3CC(C2)CC1C3)C1CCCCc2ccccc21 (centres unmarked) [Compound 169]
> 6.00	< 5.00	> 6.00	< 5.00	Cc1cc(CCC(=O)N2CCOCC2)cc(C(C)(C)C(=O)N[C@H]2[C@@H]3CC4C[C@H]2C[C@](F)(C4)C3)c1 [Compound 251]
> 6.00	< 5.00	> 6.00	< 5.00	CCCc1cccc(C(C)(C)C(=O)NC2C3CC4CC(C3)CC2C4)c1 (centres unmarked) [Compound 166]
< 5.00	< 5.00	> 6.00	< 5.00	O=C(O)CCc1cccc2c1CCCC2C(=O)NC1C2CC3CC(C2)CC1C3 (centres unmarked) [Compound 240]
< 5.00	5.00 to 6.00	> 6.00	< 5.00	CNc1cccc(C(C)(C)C(=O)NC2C3CC4CC(C3)CC2C4)c1 (centres unmarked) [Compound 77]
> 6.00	< 5.00	> 6.00	< 5.00	CC(C)(C(=O)NC1C2CC3CC(C2)CC1C3)c1cccc(CCN2CCOCC2)c1 (centres unmarked) [Compound 191]
> 6.00	< 5.00	> 6.00	< 5.00	CC1CCC(C(=O)NC2C3CC4CC(C3)CC2C4)c2ccccc21 (centres unmarked) [Compound 236]
< 5.00	< 5.00	> 6.00	< 5.00	O=C(NC1C2CC3CC(C2)CC1C3)C1(c2ccncc2)CCCC1 (centres unmarked) [Compound 127]
< 5.00	< 5.00	> 6.00	< 5.00	CC(C)(C(=O)NC1C2CC3CC(C2)CC1C3)c1ccc2ccccc2c1 (centres unmarked) [Compound 138]
> 6.00	< 5.00	> 6.00	< 5.00	O=C(NC1C2CC3CC(C2)CC1C3)C1=CCCCc2ccccc21 (centres unmarked) [Compound 168]
< 5.00	< 5.00	> 6.00	< 5.00	CC(C)(C(=O)NC1C2CC3CC(C2)CC1C3)c1ccc(OCCN2CCOCC2)cc1 (centres unmarked) [Compound 73]
< 5.00	< 5.00	> 6.00	< 5.00	CN(C)c1ccc(C(C)(C)C(=O)NC2C3CC4CC(C3)CC2C4)cc1 (centres unmarked) [Compound 52]
< 5.00	< 5.00	> 6.00	< 5.00	CC(C)(C(=O)NC1C2CC3CC(C2)CC1C3)c1cc(F)ccc1F (centres unmarked) [Compound 88]

pIC50 (11b-HSD1 [1])	pIC50 (11b-HSD2 [2])	pIC50 (11b-HSD1 [3])	pIC50 (11b-HSD2 [4])	Structure (SMILES)
5.00 to 6.00	< 5.00	> 6.00	< 5.00	CC(C)(C(=O)N[C@H]1[C@@H]2CC3C[C@H]1C[C@](F)(C3)C2)c1cccc(CCC(=O)O)c1 [Compound 217]
< 5.00	< 5.00	> 6.00	< 5.00	CC(C)(C(=O)N[C@H]1[C@@H]2CC3C[C@H]1C[C@](O)(C3)C2)c1cccc(OCCN2CCOCC2)c1 [Compound 158]
> 6.00	< 5.00	> 6.00	< 5.00	Cc1cc(CCC(=O)N2CCOCC2)cc(C(C)(C)C(=O)N[C@H]2[C@@H]3CC4C[C@H]2C[C@](O)(C4)C3)c1 [Compound 248]
< 5.00	< 5.00	> 6.00	< 5.00	COc1cc(C)cc(C(C)(C)C(=O)NC2C3CC4CC(C3)CC2C4)c1 (centres unmarked) [Compound 210]
< 5.00	< 5.00	> 6.00	< 5.00	COc1ccc(C(C)(C)C(=O)NC2C3CC4CC(C3)CC2C4)cc1OC (centres unmarked) [Compound 86]
< 5.00	< 5.00	> 6.00	< 5.00	COc1ccc2c(c1)C(C(=O)NC1C3CC4CC(C3)CC1C4)CCC2 (centres unmarked) [Compound 203]
> 6.00	< 5.00	> 6.00	< 5.00	O=C(NC1C2CC3CC(C2)CC1C3)C1=CCCc2c(Br)cccc21 (centres unmarked) [Compound 223]
5.00 to 6.00	< 5.00	> 6.00	< 5.00	CC(C)(C(=O)NC1C2CC3CC(C2)CC1C3)c1cccc(OCC(=O)O)c1 (centres unmarked) [Compound 6]
> 6.00	< 5.00	> 6.00	< 5.00	O=C(N[C@H]1[C@@H]2CC3C[C@H]1C[C@](O)(C3)C2)C1CCc2ccccc2C1 (some centres unmarked) [Compound 243]
< 5.00	< 5.00	> 6.00	< 5.00	CC(C)(C(=O)NC1C2CC3CC(C2)CC1C3)c1ccsc1 (centres unmarked) [Compound 133]
> 6.00	< 5.00	> 6.00	< 5.00	COc1cccc(C(C)(C)C(=O)NC2CCC3CCCC2C3)c1 (centres unmarked) [Compound 74]
> 6.00	< 5.00	> 6.00	< 5.00	CN(C)CCCOc1cccc(C(C)(C)C(=O)NC2C3CC4CC(C3)CC2C4)c1 (centres unmarked) [Compound 92]
< 5.00	< 5.00	> 6.00	< 5.00	COc1cc(C)cc(C(C)(C)C(=O)N[C@H]2[C@@H]3CC4C[C@H]2C[C@](F)(C4)C3)c1 [Compound 263]
< 5.00	< 5.00	> 6.00	< 5.00	CC(C)(C(=O)NC1C2CC3CC(C2)CC1(O)C3)c1ccccc1 (centres unmarked) [Compound 91]
< 5.00	< 5.00	> 6.00	< 5.00	CC(C)(C(=O)NC1CCCCCCC1)c1ccccc1 [Compound 46]
5.00 to 6.00	< 5.00	> 6.00	< 5.00	CC(C)(C(=O)N[C@@H]1[C@@H]2CC3C[C@H]1C[C@@](O)(C3)C2)c1cccc(CCC(=O)O)c1 [Compound 242]
